Read-outs that look alike come from different tables or passages of the source.
Experiments:
[1] = Plasma pharmacokinetics in rats after a 30-min intravenous infusion of Kang-Ai injection; assay type: in vivo, Sprague–Dawley rats
Method: Specific pathogen free (SPF) grade male Sprague–Dawley rats (250 ± 20) g were provided by the Experimental Animal Center of Zhengzhou University (Zhengzhou, China). These rats were kept in a designated animal room at constant temperature (22 ± 2) °C and humidity (50 ± 20) % with 12 h of light/dark per day and free access to water and food. All protocols of animal experiments were approved in accordance with the Regulations of Experimental Animal Administration issued by the Ethics Review Committee for Animal Experimentation of Jinan University (Ethical Review NO. 20190301010). Prior to the experiments, the rats were fasted for 12 h but with free access to water. After study use, the rats were euthanized with CO2 gas.
The rats in this study all received a single 30-min intravenous infusion of Kang-Ai injection via the tail veins using TYD01-02 infusion pumps (Lead Fluid, Baoding, China). The dose was derived from the label daily dose of Kang-Ai injection (60 mL/person, once daily) according to dose normalization by body surface area. For plasma pharmacokinetic studies, the rats were randomly received a single intravenous 30 min-bolus dose at 6 mL/kg. Blood samples (100 μL) were collected from the rats’ external jugular veins into heparinized polypropylene tubes at 5, 15, 30, 45 min, and 1, 1.5, 2, 3, 4, 6, 8, 12 h. After gently shaking for 10 s, the blood samples were centrifuged at 13000 g for 10 min to yield plasma samples, which were kept frozen at − 80 °C until analysis.
(§1) Pharmacokinetic parameters were estimated by non-compartmental analysis using WinNonlin 6.3 software (Pharsight, NC, US). Data are presented as the mean ± SD (n = 3). The area under the concentration–time curve up to the last measured point in time (AUC0-t) was calculated using the trapezoidal rule. The total plasma clearance (CLtot, p) was calculated by dividing the compound dose by the AUC0-∞, and the distribution volume at steady state (VSS) was estimated by multiplying the CLtot, p by the mean residence time (MRT). The renal excretory clearance (CLR) and hepatobiliary (CLB) was determined by dividing the cumulative amount excreted into urine (Cum.Ae-U) and bile (Cum.Ae-B) by the plasma AUC0-∞, respectively. The fractions of dose excreted into urine (fe-U) and the fractions of dose excreted into bile (fe-B) were established using the relationship Cum.Ae-U/Dose and Cum.Ae-B/Dose, respectively. Mean differences between treatment and control groups were analyzed by two-tailed unpaired Student’s t test by Graphpad Prism V5 software (SanDiego, CA). The level of significance was set at p < 0.05 (∗), p < 0.01 (∗∗) or p < 0.001 (∗∗∗).

[2] = Urinary (renal) excretion in rats after a 30-min infusion of Kang-Ai injection; assay type: in vivo, Sprague–Dawley rats
Method: (§2) For urine sampling, the rats were housed singly in metabolic cages. And then, the urine samples were collected at 0–4, 4–8 and 8–12 h after starting infusion and were weighed. Likewise, bile samples were also collected at 0–3, 3–6, 6–9 and 9–12 h after starting infusion and were weighed. The urine and bile collection tubes were all frozen at − 80 °C.
as §1

[3] = Biliary (hepatobiliary) excretion in rats after a 30-min infusion of Kang-Ai injection; assay type: in vivo, Sprague–Dawley rats
Method: as §2, §1

[4] = Protein binding assay (equilibrium dialysis); assay type: in vitro ADME, rat
Method: Binding of circulating alkaloids and saponins to rat plasma was measured by equilibrium dialysis using Spectra/Por 2 dialysis membranes (molecular weight cutoff, 12–14 kDa; Rancho Dominguez, CA, USA) as described. After equilibrating for 24 h at 55 rpm and 37 °C, the dialysate and the plasma were sampled for analysis. […] The concentrations of tested matrine, oxysophocarpine and oxymatrine were 2 μmol/L, while those of astragaloside IV, III, and ginsenosides Rh1, Rg2, Rg1, Rf, Re, Rd, Rc, Rb1, Rb2, notoginsenosides R1, R2, were 4 μmol/L. The unbound fraction (fu-plasma) in rat plasma was calculated as follow: fu-plasma = Cd/Cp × 100%, where the Cd and Cp values were the concentrations of each analyte in the dialysate sample and in the post-dialysis plasma sample, respectively.

[5] = Stability tests of analytes in rat plasma QC samples; assay type: in vitro ADME; conditions: rat plasma
Method: […] The dilution integrity was investigated by analyzing six replicate samples with each analyte, and each analyte were diluted 10-fold with blank rat matrix. Furthermore, the diluted samples were analyzed using freshly prepared calibration curve to calculate RE and RSD, which should be no more than ± 15% as criterion.

[6] = rat plasma, 30-min iv infusion of Kang-Ai injection 6 mL/kg
[7] = rat plasma, 30-min iv infusion of Kang-Ai injection 6 mL/kg, read-out: Cmax
[8] = rat urine 0–12 h, Kang-Ai injection 6 mL/kg iv

## CC(C)=CCC[C@](C)(O)[C@H]1CC[C@]2(C)[C@@H]1[C@H](O)C[C@@H]1[C@@]3(C)CC[C@H](O)C(C)(C)[C@@H]3[C@@H](O[C@@H]3O[C@H](CO)[C@@H](O)[C@H](O)[C@H]3O[C@@H]3OC[C@@H](O)[C@H](O)[C@H]3O)C[C@]12C [Compound C3, Notoginsenoside R2]
[1]; rat, in vivo, iv
  AUC0–12h: 0.08557 ± 0.01054 µM·h
  CLtot, p: 255.80 ± 34.97 mL/h
  Cmax: 128 ± 13.3 nM
  VSS: 99.30 ± 20.42 mL
  t1/2: 0.29 ± 0.12 h
[2]; rat, in vivo, iv
  CLR (renal excretory clearance): 25.62 ± 3.48 mL/h
  fe-U,0–12h (fraction of dose excreted into urine): 10.27 ± 2.49%
[3]; rat, in vivo, iv
  CLB (hepatobiliary clearance): 59.94 ± 6.71 mL/h
  fe-B,0–12h (fraction of dose excreted into bile): 23.55 ± 1.97%
[4]; rat, plasma
  fu-plasma (unbound fraction): 35.24 ± 2.85%

## CC(C)(O)[C@@H]1CC[C@](C)([C@H]2[C@@H](O)C[C@@]3(C)[C@@H]4C[C@H](O)[C@H]5C(C)(C)[C@@H](O[C@@H]6OC[C@@H](O)[C@H](O)[C@H]6O[C@@H]6O[C@H](CO)[C@@H](O)[C@H](O)[C@H]6O)CC[C@@]56C[C@@]46CC[C@]23C)O1 [Compound B3, Astragaloside III]
[1]; [6]
  AUC0–12h: 0.03429 ± 0.00522 µM·h
  t1/2: 0.33 ± 0.13 h
[1]; [7]
  Cmax: 54.8 ± 10.2 nM
[1]; rat, Kang-Ai injection 6 mL/kg iv
  VSS (Vd): < 0.1 L/kg
[2]; [8]
  fe-U,0–12h (fraction of dose excreted into urine): 2.60 ± 0.69%
[4]; rat plasma, equilibrium dialysis
  bound in rat plasma: ~90%
[4]; rat plasma, equilibrium dialysis 24 h, 37 °C, 2 μmol/L alkaloids, 4 μmol/L saponins
  fu-plasma (unbound fraction): 11.04 ± 0.86%
[5]; nominal conc. 20 nM
  At -80 °C for 48 h, Mean±SD: 19.85 ± 0.45 nM
  At -80 °C for 48 h, RE: -3.31%
  Extracted samples at 8 °C for 18 h, Mean±SD: 17.98 ± 1.29 nM
  Extracted samples at 8 °C for 18 h, RE: -14.29%
  Short-term stability at room temperature for 6 h, Mean±SD: 19.47 ± 1.70 nM
  Short-term stability at room temperature for 6 h, RE: -12.31%
  Three freeze-thaw cycles (-80 °C ↔ 23 °C), Mean±SD: 19.24 ± 0.59 nM
  Three freeze-thaw cycles (-80 °C ↔ 23 °C), RE: -6.46%
[5]; nominal conc. 100 nM
  At -80 °C for 48 h, Mean±SD: 89.68 ± 4.10 nM
  At -80 °C for 48 h, RE: -13.24%
  Extracted samples at 8 °C for 18 h, Mean±SD: 99.17 ± 12.67 nM
  Extracted samples at 8 °C for 18 h, RE: 13.54%
  Short-term stability at room temperature for 6 h, Mean±SD: 91.15 ± 3.72 nM
  Short-term stability at room temperature for 6 h, RE: -13.15%
  Three freeze-thaw cycles (-80 °C ↔ 23 °C), Mean±SD: 103.49 ± 8.05 nM
  Three freeze-thaw cycles (-80 °C ↔ 23 °C), RE: 9.29%
[5]; nominal conc. 400 nM
  At -80 °C for 48 h, Mean±SD: 431.79 ± 15.31 nM
  At -80 °C for 48 h, RE: 12.29%
  Extracted samples at 8 °C for 18 h, Mean±SD: 400.78 ± 32.83 nM
  Extracted samples at 8 °C for 18 h, RE: -8.93%
  Short-term stability at room temperature for 6 h, Mean±SD: 348.69 ± 3.47 nM
  Short-term stability at room temperature for 6 h, RE: -13.71%
  Three freeze-thaw cycles (-80 °C ↔ 23 °C), Mean±SD: 387.44 ± 17.00 nM
  Three freeze-thaw cycles (-80 °C ↔ 23 °C), RE: -6.84%

## CC(C)=CCC[C@](C)(O[C@@H]1O[C@H](CO[C@@H]2OC[C@H](O)[C@H](O)[C@H]2O)[C@@H](O)[C@H](O)[C@H]1O)[C@H]1CC[C@]2(C)[C@@H]1[C@H](O)C[C@@H]1[C@@]3(C)CC[C@H](O[C@@H]4O[C@H](CO)[C@@H](O)[C@H](O)[C@H]4O[C@@H]4O[C@H](CO)[C@@H](O)[C@H](O)[C@H]4O)C(C)(C)[C@@H]3CC[C@]12C [Compound D4, Ginsenoside Rb2]
[1]; male, Sprague-Dawley, plasma, rat, 30-min iv infusion of Kang-Ai injection 6 mL/kg, Table 1 unit, read-out: CLtot, p (converted)
  clearance: 0.13 mL/min
[1]; male, Sprague-Dawley, plasma, rat, 30-min iv infusion of Kang-Ai injection 6 mL/kg, Table 1 unit, read-out: VSS
  Vd: 0.0396 ± 0.0073 L
[1]; male, Sprague-Dawley, rat plasma, 30-min iv infusion of Kang-Ai injection 6 mL/kg, read-out: Cmax
  Cmax: 301 ± 34.2 nM
[1]; male, Sprague-Dawley, rat plasma, 30-min iv infusion of Kang-Ai injection 6 mL/kg, read-out: t1/2 (converted)
  half-life: 4.12 ± 0.83 h
[2]; male, Sprague-Dawley, urine and plasma, rat, Kang-Ai injection 6 mL/kg iv, read-out: CLR (renal excretory clearance) (converted)
  CL renal: 0.0357 mL/min
[2]; [8]
  fe-U,0–12h (fraction of dose excreted into urine): 27.80 ± 4.47%
[4]; rat plasma, equilibrium dialysis 24 h, 37 °C, 2 μmol/L alkaloids, 4 μmol/L saponins, read-out: fu-plasma (unbound fraction)
  fraction unbound at 24 h: 0.0067 ± 0.0005
[5]; nominal conc. 20 nM
  At -80 °C for 48 h, Mean±SD: 20.39 ± 1.54 nM
  At -80 °C for 48 h, RE: -6.96%
  Extracted samples at 8 °C for 18 h, Mean±SD: 19.58 ± 2.21 nM
  Extracted samples at 8 °C for 18 h, RE: -12.48%
  Short-term stability at room temperature for 6 h, Mean±SD: 20.28 ± 1.99 nM
  Short-term stability at room temperature for 6 h, RE: 10.37%
  Three freeze-thaw cycles (-80 °C ↔ 23 °C), Mean±SD: 20.89 ± 1.50 nM
  Three freeze-thaw cycles (-80 °C ↔ 23 °C), RE: 11.32%
[5]; nominal conc. 100 nM
  At -80 °C for 48 h, Mean±SD: 95.34 ± 8.02 nM
  At -80 °C for 48 h, RE: -12.47%
  Extracted samples at 8 °C for 18 h, Mean±SD: 96.04 ± 12.11 nM
  Extracted samples at 8 °C for 18 h, RE: -10.99%
  Short-term stability at room temperature for 6 h, Mean±SD: 88.84 ± 2.61 nM
  Short-term stability at room temperature for 6 h, RE: -13.48%
  Three freeze-thaw cycles (-80 °C ↔ 23 °C), Mean±SD: 104.61 ± 9.20 nM
  Three freeze-thaw cycles (-80 °C ↔ 23 °C), RE: 10.55%
[5]; nominal conc. 400 nM
  At -80 °C for 48 h, Mean±SD: 423.10 ± 46.59 nM
  At -80 °C for 48 h, RE: 12.64%
  Extracted samples at 8 °C for 18 h, Mean±SD: 434.41 ± 11.65 nM
  Extracted samples at 8 °C for 18 h, RE: 11.01%
  Short-term stability at room temperature for 6 h, Mean±SD: 352.24 ± 2.93 nM
  Short-term stability at room temperature for 6 h, RE: -12.50%
  Three freeze-thaw cycles (-80 °C ↔ 23 °C), Mean±SD: 440.44 ± 2.62 nM
  Three freeze-thaw cycles (-80 °C ↔ 23 °C), RE: 13.72%

## O=c1cccc2n1C[C@H]1C[C@@H]2CN2CC[C@H](O)C[C@H]12 [Compound A5, Baptifoline]
[1]; [6]
  t1/2: 2.15 ± 0.50 h
[1]; [7]
  Cmax: 264 ± 47.2 nM
[2]; [8]
  fe-U,0–12h (fraction of dose excreted into urine): 37.56 ± 15.13%
[3]; rat bile 0–12 h, Kang-Ai injection 6 mL/kg iv
  fe-B,0–12h (fraction of dose excreted into bile): 10.30 ± 1.11%

## O=C1CCCC2=C3CCC[N+]4([O-])CCC[C@@H](CN12)[C@@H]34 (stereo partly shown) [Compound A7, Leontalbinine N-oxide]
[1]; rat, in vivo, iv
  CLtot, p: 20.03 ± 4.84 mL/h
  Cmax: 202 ± 19.1 nM
  MRT: 7.94 h
  VSS: 150.70 ± 19.02 mL
  t1/2: 5.73 ± 1.74 h
[2]; rat, in vivo, iv
  CLR (renal excretory clearance): 12.32 ± 4.14 mL/h
  fe-U,0–12h (fraction of dose excreted into urine): 61.05 ± 10.61%
[3]; rat, in vivo, iv
  CLB (hepatobiliary clearance): 1.42 ± 0.17 mL/h
  fe-B,0–12h (fraction of dose excreted into bile): 7.30 ± 1.41%

— article PMC7339578, “Multiple circulating alkaloids and saponins from intravenous Kang-Ai injection inhibit human cytochrome P450 and UDP-glucuronosyltransferase isozymes: potential drug–drug interactions” (Chinese Medicine, 2020)
